From US5284837A, “Derivatives of purine, process for their preparation and a pharmaceutical preparation” (Medivir AB, priority 1988, dated 1994)
Counter-ions that a name gives are not always drawn. Like-named read-outs stand apart in the source and are kept apart here. One block for each compound: values may come before it.

Columns and labels:
[1] = Oral bioavailability in monkey (Test III); assay type: in vivo, cynomologous monkeys
Method: (§1) TEST III--ORAL BIOAVAILABILITY
(§2) Oral bioavailability was determined by dosing the animals (cynomologous monkeys and rats) intravenously and orally on separate occasions with the compounds. Blood samples were taken after appropriate intervals for determination of drug level in plasma. Appropriate pharmacokinetic calculations were then carried out based on plasma concentration against time relationship.

[2] = system: HIV (HTLV-IIIB) in H9 cells; assay: Effect of compounds on HIV multiplication in H9 cells (Test I); assay type: cell-based, human immunodeficiency virus (HTLV-IIIB); conditions: 6-7 days, read-out: Concentration (μM) for 50% inhibition (IC50) of human immuno deficiency virus multiplication in cell culture
Method: Materials and Methods: HIV Infection of H9 Cells H9 cells, 10^5 cells per well on a 24 well plate, suspended in 2 ml RPMI-medium containing 10% fetal calf serum, 100 μg/ml pencillin, 10 μg/ml streptomycin sulfate and 2 μg/ml polybrene are exposed to HIV (HTLV-IIIB) and different concentrations of the test compounds. The plates are incubated at 37° C. in 5% CO2 for 6-7 days. The contents in each well is then homogenized with a pipette and transferred to a centrifuge tube. After centrifugation for 10 min at 1500 rpm the supernatant is removed and the cell pellet is analyzed by fixing in methanol on glass plates. Human HIV positive serum diluted 1:80 or 1:160 is added and incubated for 30 min at 37° C. The pate is then washed with phosphate-buffered saline (PBS) containing Ca2+ and Mg2+. Sheep antihuman conjugate (FITC) is added and after a new incubation the plate is again washed with PBS. Contrast staining is done with Evans blue and after drying the frequency of HIV antigen containing cells is determined in a microscope.

[3] = Cellular toxicity, inhibition of H9 cell multiplication (Test II); assay type: cell-based; conditions: human, H9 cells
Method: (§3) Test II--Cellular Toxicity
H9 cells, 2×10^7 cells per plate, are incubate in RPMI-1640 medium containing 10% fetal calf serum, 70 mg/l penicillin, 100 mg/l streptomycin and 10 mM hepes, in absence or presence of test compounds. The number of cells per plate is determined after 48 h. Cells incubated in the absence of test compounds then underwent two cell division cycles.
(§4) F5000 cells, which are human embryo cells, 1×10^5 cells per plate, are incubated in Eagle's minimal essential medium, supplemented with Earle's salts, non-essential amino acids, 10% fetal calf serum, 10 mM hepes, 70 mg/l penicillin and 100 mg/l streptomycin, in absence or presence of test compounds. The number of cells per plate is determined after 48 h. Cells incubated in the absence of test compounds underwent one cell division cycle.

[4] = Cellular toxicity, inhibition of F5000 cell multiplication (Test II); assay type: cell-based; conditions: human, f5000 cells
Method: as §3, §4

[5] = Oral bioavailability in rat (Test III); assay type: in vivo; conditions: for plasma concentration of VSA 671 after VSA 671 has been given as 6-deoxy prodrug or ester: in words
Method: as §1, §2

[6] = Human immunodeficiency virus 1, IIIB, H9, H9 cells
[7] = plasma AUC relative to AUC after intravenously given VSA 671, read-out: Oral bioavailability F of compound determined as VSA 671

Structure (SMILES): Nc1nc2c(ncn2CC(CO)CCO)c(=O)[nH]1 (single isomer, unassigned; (-)) [VSB 647, (-)-9-(4-Hydroxy-2-hydroxymethylbutyl)guanine]
- IC50 ([2]; H9 cells): 0.1 to 7 µM
- inhibition at 48 h, 100 µM ([3]; 100 μM): 5%

Structure (SMILES): Nc1nc2c(ncn2CC(CO)CCO)c(=O)[nH]1 (single isomer, unassigned; (+)) [VSB 648, (+)-9-[4-hydroxy-2(hydroxymethyl)butyl]-guanine]
- IC50 ([2]; H9 cells): 1 to 5 µM

Structure (SMILES): CC(=O)OCCC(COC(C)=O)Cn1cnc2c(=O)[nH]c(N)nc21 (stereo not drawn) [VSC 640, 9-[4-acetoxy-2-(acetoxymethyl)butyl]guanine.HCl]
- plasma concentration of VSA 671 after VSA 671 has been given as 6-deoxy prodrug or ester [5]: significantly increased

Structure (SMILES): Nc1nc2c(ncn2CC(CO)CCO)c(=O)[nH]1 (racemic) [VSA 671, 9-[4-hydroxy-2-(hydroxymethyl)butyl]guanine]
- bioavailability [1, 7]: 10%
- IC50 [2, 6]: 1 to 10 µM
- inhibition at 48 h, 1000 µM ([4]; 1000 μM): 55%
- inhibition at 48 h, 500 µM ([3]; 500 μM): 55%
- bioavailability [5, 7]: 11%

Structure (SMILES): Nc1ncc2ncn(CC(CO)CCO)c2n1 (stereo not drawn) [VSB 212, 2-(2-Aminopurin-9yl)methyl butan-1,4-diol]
- plasma concentration of VSA 671 after VSA 671 has been given as 6-deoxy prodrug or ester [5]: significantly increased

The next lines start with results.

- plasma concentration of VSA 671 after VSA 671 has been given as ester of 6-deoxy prodrug ([1]; in words): significantly increased
Structure (SMILES): CC(=O)OCCC(COC(C)=O)Cn1cnc2cnc(N)nc21 (stereo not drawn) [VSC 610, 2-(2-Aminopurin-9-yl)methylbutane-1,4-diol diacetate]

- IC50 [2, 6]: 10 µM
Structure (SMILES): Nc1ncnc2c1ncn2CC(CO)CCO (stereo not drawn) [VSC 600, 9-(4-Hydroxy-2-hydroxymethylbutyl)adenine]
- inhibition at 48 h, 500 µM ([4]; 500 μM): 25%
- inhibition at 48 h, 200 µM ([3]; 200 μM): 25%

- plasma concentration of VSA 671 after VSA 671 has been given as 6-deoxy prodrug or ester [5]: significantly increased
Structure (SMILES): CCC(=O)OCCC(COC(=O)CC)Cn1cnc2c(=O)[nH]c(N)nc21 (stereo not drawn) [VSC 641, 9-[4-propionoxy-2-(propionoxymethyl)butyl]guanine.HCl]
